≈ marks a conversion by molar mass, not a printed value. Bounds are passed on as bounds.

The first data set in a line: Solubility of host materials (Table 4, solution-processed OLEDs). Type of data set: physicochemical. The conditions noted are these: Example V8.
`c1ccc(-c2c3ccccc3c(-c3cccc4c3ccc3cc5ccccc5cc34)c3ccccc23)cc1` [VH-3]: the “Solubility / processability from solution (in words)” value is given as “cannot be processed from solution at all owing to the low solubility”.

The data set is the same for the next values; noted with them: host material; solvent not given (emission-layer mixture is dissolved in toluene).
With `Cc1c2ccccc2cc2c1ccc1c(-c3c4ccccc4c(-c4ccccc4)c4ccccc34)cccc12` [H-1], the Solubility (commonly the dissolved amount per volume that the medium holds) turned out to be 40 mg/mL (≈ 80.9 mM).
With `CC(C)Cc1c2ccccc2cc2c1ccc1c(-c3c4ccccc4c(-c4ccccc4)c4ccccc34)cccc12` [H-2], the Solubility was 45 mg/mL (≈ 83.8 mM).
Same read-out and setting: then `c1ccc(-c2cc(-c3ccccc3)cc(-c3c4ccccc4c(-c4cccc5c4ccc4cc6ccccc6cc45)c4ccccc34)c2)cc1` [VH-1], with 70 mg/mL (≈ 111 mM).
As to `c1ccc(-c2c3ccccc3c(-c3cccc4c3ccc3cc5ccccc5cc34)c3ccccc23)cc1` [VH-3], the Solubility was less than 1 mg/mL.
Still for that read-out and setting: then `c1ccc2cc(-c3c4ccccc4c(-c4cccc5ccccc45)c4ccccc34)ccc2c1` [VH-4], with 44 mg/mL (≈ 102 mM).
